Values quoted from earlier work in publication PMC9851200, “Multiparameter phenotypic screening for endogenous TFEB and TFE3 translocation identifies novel chemical series modulating lysosome function” (Autophagy, 2022).

Experiments:
Parameters in all cases: method as in original PKIS2 published data
[1] = molecular target: T1, kinases (KINOMEscan panel) (Homo sapiens, UniProt Q12851); conditions: kinase MAP4K2; Published KINOMEscan; ref original PKIS2 published data; cited from earlier work
T1 sequence (Q12851 1-820): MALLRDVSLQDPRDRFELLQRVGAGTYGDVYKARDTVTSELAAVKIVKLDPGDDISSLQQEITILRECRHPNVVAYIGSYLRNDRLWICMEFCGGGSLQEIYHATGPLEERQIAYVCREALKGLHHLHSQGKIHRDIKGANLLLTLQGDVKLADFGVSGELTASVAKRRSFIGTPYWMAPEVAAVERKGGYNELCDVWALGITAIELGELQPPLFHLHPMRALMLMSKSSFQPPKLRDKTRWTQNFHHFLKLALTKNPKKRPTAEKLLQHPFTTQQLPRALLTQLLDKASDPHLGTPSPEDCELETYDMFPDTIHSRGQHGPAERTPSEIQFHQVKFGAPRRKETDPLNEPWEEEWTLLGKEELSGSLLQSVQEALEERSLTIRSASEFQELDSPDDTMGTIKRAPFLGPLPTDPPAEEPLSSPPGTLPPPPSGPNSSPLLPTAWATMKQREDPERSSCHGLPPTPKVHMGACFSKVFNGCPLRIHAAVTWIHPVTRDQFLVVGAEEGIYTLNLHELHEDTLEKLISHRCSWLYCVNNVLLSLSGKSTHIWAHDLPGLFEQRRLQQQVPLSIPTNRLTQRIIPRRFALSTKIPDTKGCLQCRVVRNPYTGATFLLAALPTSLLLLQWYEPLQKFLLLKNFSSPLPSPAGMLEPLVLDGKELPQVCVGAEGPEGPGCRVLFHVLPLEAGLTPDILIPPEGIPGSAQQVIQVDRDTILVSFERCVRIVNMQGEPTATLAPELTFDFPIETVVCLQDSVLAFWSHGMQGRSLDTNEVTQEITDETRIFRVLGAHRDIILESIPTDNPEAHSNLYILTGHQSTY

[2] = molecular target: kinases (KINOMEscan panel) (Homo sapiens, UniProt P51617); conditions: kinase IRAK1; Published KINOMEscan; ref original PKIS2 published data; cited from earlier work
Sequence of kinases (KINOMEscan panel) (Homo sapiens, UniProt P51617) (P51617 whole entry): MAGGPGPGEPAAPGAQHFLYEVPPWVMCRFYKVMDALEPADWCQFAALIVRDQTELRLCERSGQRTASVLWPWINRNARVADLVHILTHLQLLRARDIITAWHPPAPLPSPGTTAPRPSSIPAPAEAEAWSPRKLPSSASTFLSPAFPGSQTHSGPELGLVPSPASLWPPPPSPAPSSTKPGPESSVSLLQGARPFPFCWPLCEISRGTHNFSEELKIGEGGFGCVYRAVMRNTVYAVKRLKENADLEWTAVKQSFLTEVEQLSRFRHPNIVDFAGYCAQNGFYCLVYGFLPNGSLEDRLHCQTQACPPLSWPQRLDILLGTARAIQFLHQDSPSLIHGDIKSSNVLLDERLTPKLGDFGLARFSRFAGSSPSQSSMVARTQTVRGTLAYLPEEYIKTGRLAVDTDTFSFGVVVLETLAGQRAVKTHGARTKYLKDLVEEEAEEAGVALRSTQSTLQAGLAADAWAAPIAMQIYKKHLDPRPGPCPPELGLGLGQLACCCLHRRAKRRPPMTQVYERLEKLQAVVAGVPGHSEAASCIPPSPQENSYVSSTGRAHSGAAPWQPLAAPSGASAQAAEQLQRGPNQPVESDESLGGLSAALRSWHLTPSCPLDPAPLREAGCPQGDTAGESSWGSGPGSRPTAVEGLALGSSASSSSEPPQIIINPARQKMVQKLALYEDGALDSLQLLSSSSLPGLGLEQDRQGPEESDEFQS

[3] = molecular target: T2, kinases (KINOMEscan panel) (Homo sapiens, UniProt O75747); conditions: Published KINOMEscan; ref original PKIS2 published data; cited from earlier work
T2 sequence (O75747 1-1486): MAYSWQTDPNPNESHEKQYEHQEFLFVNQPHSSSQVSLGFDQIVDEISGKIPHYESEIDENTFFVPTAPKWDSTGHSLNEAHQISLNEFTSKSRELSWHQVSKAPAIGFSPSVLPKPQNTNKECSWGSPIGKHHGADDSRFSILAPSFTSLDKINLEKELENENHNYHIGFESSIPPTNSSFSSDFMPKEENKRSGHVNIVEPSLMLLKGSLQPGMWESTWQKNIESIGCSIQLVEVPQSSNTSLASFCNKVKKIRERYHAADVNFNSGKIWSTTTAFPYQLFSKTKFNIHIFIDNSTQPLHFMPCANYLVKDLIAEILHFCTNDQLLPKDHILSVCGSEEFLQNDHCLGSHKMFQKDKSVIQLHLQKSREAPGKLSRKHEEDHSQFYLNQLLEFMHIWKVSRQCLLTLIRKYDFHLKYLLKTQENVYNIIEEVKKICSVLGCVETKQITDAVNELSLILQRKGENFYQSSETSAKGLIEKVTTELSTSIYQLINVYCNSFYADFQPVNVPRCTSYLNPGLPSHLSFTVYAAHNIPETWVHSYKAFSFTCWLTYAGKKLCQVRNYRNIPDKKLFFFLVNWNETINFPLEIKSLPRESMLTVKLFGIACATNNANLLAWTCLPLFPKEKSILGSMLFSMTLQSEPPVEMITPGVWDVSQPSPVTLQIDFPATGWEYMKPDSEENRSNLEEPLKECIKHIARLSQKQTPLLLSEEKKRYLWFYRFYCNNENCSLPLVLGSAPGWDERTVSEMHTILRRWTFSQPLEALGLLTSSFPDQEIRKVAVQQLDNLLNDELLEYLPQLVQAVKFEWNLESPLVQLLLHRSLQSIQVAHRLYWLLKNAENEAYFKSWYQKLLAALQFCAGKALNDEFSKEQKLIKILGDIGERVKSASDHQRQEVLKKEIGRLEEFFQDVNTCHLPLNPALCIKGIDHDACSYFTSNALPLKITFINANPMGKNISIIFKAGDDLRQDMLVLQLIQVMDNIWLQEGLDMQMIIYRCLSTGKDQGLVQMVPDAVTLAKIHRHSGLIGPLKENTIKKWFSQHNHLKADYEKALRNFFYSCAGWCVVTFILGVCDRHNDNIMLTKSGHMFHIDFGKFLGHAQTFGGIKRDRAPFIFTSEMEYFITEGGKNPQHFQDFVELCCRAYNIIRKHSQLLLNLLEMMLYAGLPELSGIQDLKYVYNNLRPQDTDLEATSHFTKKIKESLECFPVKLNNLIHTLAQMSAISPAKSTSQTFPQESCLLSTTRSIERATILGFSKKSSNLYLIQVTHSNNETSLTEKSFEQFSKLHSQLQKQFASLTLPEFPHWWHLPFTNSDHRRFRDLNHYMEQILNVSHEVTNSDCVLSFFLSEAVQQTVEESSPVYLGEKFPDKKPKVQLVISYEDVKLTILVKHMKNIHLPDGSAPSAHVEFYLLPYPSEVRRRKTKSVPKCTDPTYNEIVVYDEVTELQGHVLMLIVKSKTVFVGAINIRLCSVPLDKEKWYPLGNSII

[4] = molecular target: kinases (KINOMEscan panel) (Homo sapiens, UniProt P08631); conditions: kinase HCK; Published KINOMEscan; ref original PKIS2 published data; cited from earlier work
Sequence of kinases (KINOMEscan panel) (Homo sapiens, UniProt P08631) (P08631 whole entry): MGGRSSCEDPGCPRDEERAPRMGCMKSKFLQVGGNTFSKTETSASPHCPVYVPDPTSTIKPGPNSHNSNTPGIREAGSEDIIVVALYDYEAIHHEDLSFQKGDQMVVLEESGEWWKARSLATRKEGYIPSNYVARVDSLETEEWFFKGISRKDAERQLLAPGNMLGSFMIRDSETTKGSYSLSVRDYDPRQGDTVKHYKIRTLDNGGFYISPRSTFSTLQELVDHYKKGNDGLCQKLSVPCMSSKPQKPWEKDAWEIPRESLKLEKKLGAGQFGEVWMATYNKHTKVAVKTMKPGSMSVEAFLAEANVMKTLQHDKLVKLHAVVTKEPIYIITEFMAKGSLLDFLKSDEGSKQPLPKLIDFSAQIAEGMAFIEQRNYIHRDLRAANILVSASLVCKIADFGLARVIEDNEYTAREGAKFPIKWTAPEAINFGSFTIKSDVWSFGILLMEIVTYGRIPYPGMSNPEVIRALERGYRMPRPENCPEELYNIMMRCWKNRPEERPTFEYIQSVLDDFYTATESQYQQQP

In the case of Cc1cccc(-c2nc(Nc3ccncc3)c3ccccc3n2)n1 [NK215], the “KINOMEscan MAP4K2” value [1] is given as 0, the “KINOMEscan IRAK1” value [2] is given as 0 and the “KINOMEscan PIK3C2G” value [3] is given as 0. For the same molecule, the “KINOMEscan HCK” value [4] was 11.
